Test results reported in the NIST ThermoML archive (doi:10.1021/acs.jced.9b00283).

Experiment: xn = mol fraction of the nth substance listed
Details: 100 kPa, Liquid, Pycnometric method

OCCCCCO [1,5-pentanediol] + CCn1cc[n+](C)c1.F[B-](F)(F)F
Details | molar volume [m3/mol]
303.15 K, x1 = 0.129 | 0.0001423
303.15 K, x1 = 0.982 | 0.0001069
308.15 K, x1 = 0.151 | 0.0001416
308.15 K, x1 = 0.977 | 0.0001075
313.15 K, x1 = 0.183 | 0.0001412
313.15 K, x1 = 0.97 | 0.0001062
318.15 K, x1 = 0.231 | 0.0001381
318.15 K, x1 = 0.969 | 0.0001064

OCCCCO [1,4-butanediol] + CCn1cc[n+](C)c1.F[B-](F)(F)F
Details | molar volume [m3/mol]
298.15 K, x1 = 0.19 | 0.0001368
298.15 K, x1 = 0.978 | 9.18e-05
303.15 K, x1 = 0.24 | 0.0001346
303.15 K, x1 = 0.962 | 9.26e-05
308.15 K, x1 = 0.251 | 0.0001345
308.15 K, x1 = 0.957 | 9.33e-05
313.15 K, x1 = 0.326 | 0.0001286
313.15 K, x1 = 0.944 | 9.04e-05

OCCCCCO [1,5-pentanediol] + CCn1cc[n+](C)c1.O=S(=O)([N-]S(=O)(=O)C(F)(F)F)C(F)(F)F
Details | molar volume [m3/mol]
298.15 K, x1 = 0.142 | 0.0002297
298.15 K, x1 = 0.995 | 0.0001075
303.15 K, x1 = 0.16 | 0.0002253
303.15 K, x1 = 0.992 | 0.0001086
308.15 K, x1 = 0.175 | 0.0002251
308.15 K, x1 = 0.987 | 0.0001088
313.15 K, x1 = 0.193 | 0.0002239
313.15 K, x1 = 0.982 | 0.0001095

OCCCCO [1,4-butanediol] + CCn1cc[n+](C)c1.O=S(=O)([N-]S(=O)(=O)C(F)(F)F)C(F)(F)F
Details | molar volume [m3/mol]
298.15 K, x1 = 0.177 | 0.0002253
298.15 K, x1 = 0.971 | 9.23e-05
303.15 K, x1 = 0.189 | 0.0002241
303.15 K, x1 = 0.968 | 9.31e-05
308.15 K, x1 = 0.217 | 0.00022
308.15 K, x1 = 0.962 | 9.36e-05
313.15 K, x1 = 0.233 | 0.0002181
313.15 K, x1 = 0.958 | 9.29e-05

OCCCO [propan-1,3-diol] + CCn1cc[n+](C)c1.O=S(=O)([N-]S(=O)(=O)C(F)(F)F)C(F)(F)F
Details | molar volume [m3/mol]
298.15 K, x1 = 0.208 | 0.0002153
298.15 K, x1 = 0.977 | 7.48e-05
303.15 K, x1 = 0.226 | 0.0002124
303.15 K, x1 = 0.974 | 7.55e-05
308.15 K, x1 = 0.234 | 0.0002114
308.15 K, x1 = 0.971 | 7.61e-05
313.15 K, x1 = 0.259 | 0.0002063
313.15 K, x1 = 0.971 | 7.6e-05
